Laboratory results: US20260137696A1, “Compositions Comprising an Inhibitor of Galectin-3” (University of Liverpool, priority 2023, published 2026)
Where “and” joins values, the source holds several entries; their conditions need not be identical. Identical values can stand only once. Entries after “also recorded” stand apart in the source; their conditions may differ.

What was measured:
Galectin-3 = molecular target: T1, Galectin-3 (Homo sapiens, UniProt P17931); experiment: Galectin-3 binding to its ligand asialofetuin (ASF), ELISA; settings: Galectin-3 5 μg/ml, ASF 20 μg/ml, read-out: IC50, inhibition of Galectin-3 binding to ASF
T1 construct: made in house; host or cells: E. coli
Experimental: The compounds of Formula I and Formula II each inhibits Galectin-3 binding to ASF dose-dependently with IC50 1˜5 μM;
FIG. 1A and FIG. 1B show compounds of Formula I and Formula II inhibit Galectin-3 binding to its ligand asialofetuin (ASF). […] The compounds of Formula I and Formula II each inhibit Galectin-3 binding to ASF dose-dependently with IC50 1˜5 μM.
Ninety-six well ELISA plates were coated with 20 μg/ml ASF in coating buffer (1.6 g Na2CO3, 1.46 NaHCO3 in 1 L H20, pH 9.6) overnight at room temperature. The plates were washed twice with washing buffer (0.05% Tween-20 in PBS) before incubation with blocking buffer (1% BSA in PBS) for 30 min. Recombinant human Galectin-3 (5 ug/ml) was incubated without or with various concentrations of the compounds of Formula I and compounds of Formula II for 30 min before introduced to the plates for 2 hr at room temperature. The plates were washed twice with washing buffer before introduction of anti-Galectin-3 antibody (1 μg/ml) for 2 hr. The plates were washed three times with washing buffer before introduction of HRP-conjugated secondary antibody (1:5,000 dilutions) for 1 hr at room temperature. The plates were washed twice with washing buffer before developed by SigmaFAST. The reaction was stopped by addition of 4M sulphuric acid before the plates were read at 492 nm (ref 595 nm) by a microplate reader.

SW620 cells = experiment: Cancer cell invasion through HUVECs (transwell); assay type: cell-based, human; settings: 10 μM, transwells
Experimental: Invasion of human colon cancer SW620 cells through human umbilical vein endothelial cells (HUVECs) was assessed in transwells in the absence or presence of the compounds of Formula I and Formula II (10 μM).
HUVECs were seeded (1.5×10^4 cells/well) into trans-well insert in 24-well plate and cultured for three days to allow tight monolayer formation (TEER reading >800 Ω/cm2). The integrity of HUVEC monolayer was confirmed by measuring TEER and only monolayers with TEER reading >800 Ω/cm^2 were used for the invasion assay. The HUVEC monolayers were washed with PBS before introduction of ZsGreen- and luciferase transfected SW620Gal3+, SW620Gal-3, or ACA19+ cells (5×10^5 cells/ml) in serum-free DMEM with 0.5 mg/ml BSA, without or with 10 μM the compound of Formula I or the compound of Formula II. ZsGreen- and luciferase-labelled SW620Gal3− and SW620Gal3+ cells (5×10^5 cells/ml) were mixed without or with 10 μM inhibitors for 15 minutes before introduced to the HUVEC monolayer in the transwells for 16-18 hours. The cells at the upper side of the trans-well inserts were gently removed with a cotton swab and the inserts were washed twice with PBS. The cells that migrated to the bottom side of the trans-wells were lysed with PLB buffer for 10 min. The lyse was introduced with Luciferase Assay Reagent for 5 min before luminescence was measured. […]

MDA-MB-231 cell = experiment: Triple-negative breast cancer cell adhesion to basement matrix; assay type: cell-based, human; settings: for adhesion of control (Con) MDA-MB-231 cells: non-transfected cells (FIG. 15C, 15D); for MDA-MB-231 cell adhesion to matrix: different concentrations (FIG. 15A, 15B)
Experimental: (§1) Nanty-six well plates were coated with 50 μl Matrigel (1:30 diluted in PBS) at 37° C. for 1 hour. Cancer cells, pre-labelled with fluorescent die DiI at 37° C. for 20 minutes, were washed twice with PBS and resuspended into 3×10^4 cells/ml in serum-free medium. The matrix-coated 96-well plates were washed twice with PBS before introduction of […] cell suspension with different concentrations of the inhibitors or PBS/DMSO (control) for 1 hour at 37° C. The plates were washed twice with PBS before three randomly selected Field of Views (FOVs) were recorded by fluorescence microscope and number of adhesion cells were quantified by Image J.

PANC1 cell = experiment: Pancreatic cancer cell adhesion to basement matrix; assay type: cell-based, human; settings: for adhesion of control PANC1 cells: non-transfected cells (FIG. 16C, 16D); for PANC1 cell adhesion to matrix: different concentrations (FIG. 16A, 16B)
Experimental: as §1

[1] = system: galectin-3 knockout (Gal3KO) PANC1 cells; experiment: Pancreatic cancer cell adhesion to basement matrix, galectin-3 knockout; assay type: cell-based, human; settings: galectin-3 knockout by CRISPR/Cas9 (FIG. 16C, 16D)
Experimental: as §1
MDAMB-231 or PANC-1 cells were seeded into 6-well plate (2×10^5 cells) and cultured at 37° C. for 24 hour. Galectin-3 CRISPR Cas9 Knockout plasmid (2 μg) and galectin-3 HDR plasmid (2 μg) was mixed with Plasmid Transfection Medium (21 μl) for 5 minutes before addition to a mixture of lipofectamine STEM Transfection Reagent (STEM00001) (1 μl) and Plasmid Transfection Medium (25 μl) for 10 minutes at room temperature. The cells in the 6-well plates were washed and introduced with the Plasmid DNA/Lipofectamine STEM Transfection Reagent complex at 37° C. for 24 hours. […] Successful co-transfection of the CRISPR/Cas9 KO Plasmid and HDR Plasmid was confirmed by expression of red fluorescence protein of the cells. […]

T1 sequence (P17931 whole entry): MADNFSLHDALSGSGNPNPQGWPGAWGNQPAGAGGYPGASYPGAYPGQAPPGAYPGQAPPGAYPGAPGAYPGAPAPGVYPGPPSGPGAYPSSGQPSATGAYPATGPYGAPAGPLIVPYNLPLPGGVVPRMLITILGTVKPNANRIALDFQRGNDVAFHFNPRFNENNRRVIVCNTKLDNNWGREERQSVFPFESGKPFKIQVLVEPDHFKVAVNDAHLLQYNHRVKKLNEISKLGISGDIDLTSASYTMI

Row | Compound | IC50 (Galectin-3) | SW620 cell invasion through HUVECs (SW620 cells) | adhesion of control (Con) MDA-MB-231 cells (MDA-MB-231 cell) | MDA-MB-231 cell adhesion to matrix (MDA-MB-231 cell) | adhesion of control PANC1 cells (PANC1 cell) | PANC1 cell adhesion to matrix (PANC1 cell) | adhesion of Gal3KO PANC1 cells [1]
1 | C[C@H]1COc2c(N3CCN(C)CC3)c(F)cc3c(=O)c(C(=O)NNc4cccc(N)c4)cn1c23 [Formula II] | ~5000 nM and 1000 to 5000 nM | significant inhibits | significant reduction; also recorded: significant inhibition | dose-dependent inhibition | significant reduction; also recorded: significant inhibition | dose-dependently inhibits | lost their inhibitory effect
2 | C[C@H]1COc2c(N3CCN(C)CC3)c(F)cc3c(=O)c(C(=O)NNc4ccc(N)cc4)cn1c23 [Formula I] | ~1000 nM and 1000 to 5000 nM | significant inhibits | significant reduction; also recorded: significant inhibition | dose-dependent inhibition | significant reduction; also recorded: significant inhibition | dose-dependently inhibits | lost their inhibitory effect
